Measurements from patent US11510983B2 (priority 2013, dated 2022).

Experiments:
[1] = parameters: species or system mice; conditions: mouse, in vivo
[2] = test system: A/California/7/2009 (H1N1); parameters: species or system BALB/c mice; conditions: mouse, in vivo
[3] = pig, in vivo
[4] = test system: A/California/7/2009 (H1N1); parameters: species or system BALB/c mice; conditions: mouse, in vivo; remark: listed apart in the source

Compound | raise of specific antibody titers in the presence vs. absence of laser pre-treatment [1] | time after which HAI titer started to decline to levels of non-adjuvanted flu vaccine [2] | skin response at the injection site [3] | elevation of IgG2a production [4] | type of immune response by IgG2a/IgG1 ratio [4]
OVA: protein model antigen ovalbumin | 6 folds |  |  |  | 
CC(C)Cn1cnc2c(N)nc3ccccc3c21 [IMIQ, 1-(2-Methylpropyl)-1H-imidazo[4,5-c]quinolin-4-amine] |  | > 3 months | Diminished skin irritation | 5 fold | Th1-biased immune response
